Reference: patent publication US11319315B2, “Cyclohexyl acid triazole azoles as LPA antagonists” (BRISTOL-MYERS SQUIBB COMPANY, priority 2017, dated 2022)

The compounds below were run against T1, human LPA1 (Homo sapiens, UniProt Q92633) (assay: LPA1 functional antagonist assay (LPA-induced calcium flux in CHO cells overexpressing human LPA1)). Details: inhibition of calcium flux induced by 10 nM LPA, CHO cells overexpressing human LPA1; read-out: hLPA1 IC50.
T1 construct: expressed in transfected cells; host or cells: Chinese hamster ovary (CHO) cells
T1 sequence (Q92633 whole entry): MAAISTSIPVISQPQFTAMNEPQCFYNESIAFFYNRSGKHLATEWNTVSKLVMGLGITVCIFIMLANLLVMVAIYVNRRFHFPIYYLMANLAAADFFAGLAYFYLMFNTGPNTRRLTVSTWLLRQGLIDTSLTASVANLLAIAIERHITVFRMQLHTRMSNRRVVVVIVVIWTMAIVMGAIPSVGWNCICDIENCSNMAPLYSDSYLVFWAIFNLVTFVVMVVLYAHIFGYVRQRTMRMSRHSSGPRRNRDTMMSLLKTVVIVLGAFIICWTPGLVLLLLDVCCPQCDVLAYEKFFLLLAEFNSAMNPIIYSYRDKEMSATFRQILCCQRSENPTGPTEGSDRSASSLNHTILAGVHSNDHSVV
Assay type: cell-based
Method in brief: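 CHO cells overexpressing human LPA1, dye-loaded 30 min at 37 °C, then given compound (0.08 nM–5 μM final, 0.5% DMSO) in HBSS/20 mM HEPES/0.1% fatty-acid-free BSA for 20 min at room temperature before 10 nM LPA. IC50 as 50% inhibition of LPA-evoked calcium flux, 4-parameter logistic fit.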

SMILES	IC50
Cc1nc(-c2nnn(C)c2CNc2noc(C3CC3C)n2)ccc1O[C@H]1CCC[C@H](C(=O)O)C1 (some centres unmarked) [Example 180]	42.1 nM
Cc1nc(-c2nnn(C)c2CNc2noc(C3CC3(C)C)n2)ccc1O[C@H]1CCC[C@H](C(=O)O)C1 (some centres unmarked) [Example 181]	24.1 nM
Cc1nc(-c2nnn(C)c2CNc2noc(C3CC3(C)C)n2)ccc1O[C@H]1CCC[C@H](C(=O)O)C1 (some centres unmarked) [Example 182]	17 nM
Cc1nc(-c2nnn(C)c2CNc2noc(CCCCF)n2)ccc1O[C@H]1CCC[C@H](C(=O)O)C1 [Example 183]	32 nM
Cc1nc(-c2nnn(C)c2CNc2noc(CCCF)n2)ccc1O[C@H]1CCC[C@H](C(=O)O)C1 [Example 184]	74 nM
Cc1nc(-c2nnn(C)c2CNc2noc(C(C)C3CC3)n2)ccc1O[C@H]1CCC[C@H](C(=O)O)C1 (some centres unmarked) [Example 185]	24 nM
Cc1nc(-c2nnn(C)c2CNc2noc(C3CCC(F)(F)C3)n2)ccc1O[C@H]1CCC[C@H](C(=O)O)C1 (some centres unmarked) [Example 186]	79 nM
Cc1nc(-c2nnn(C)c2CNc2noc(CCC3(C)CC3)n2)ccc1O[C@H]1CCC[C@H](C(=O)O)C1 [Example 187]	31 nM
Cc1nc(-c2nnn(C)c2CNc2noc(CCC(C)(F)F)n2)ccc1O[C@H]1CCC[C@H](C(=O)O)C1 [Example 188]	42 nM
Cc1nc(-c2nnn(C)c2CNc2noc(C3CC(F)C3)n2)ccc1O[C@H]1CCC[C@H](C(=O)O)C1 (some centres unmarked) [Example 189]	74 nM
Cc1nc(-c2nnn(C)c2CNc2noc(C3CC(F)C3)n2)ccc1O[C@H]1CCC[C@H](C(=O)O)C1 (some centres unmarked) [Example 190]	55 nM
Cc1nc(-c2nnn(C)c2CNc2noc([C@H]3C[C@@](C)(F)C3)n2)ccc1O[C@H]1CCC[C@H](C(=O)O)C1 [Example 191]	112 nM
Cc1nc(-c2nnn(C)c2CNc2noc([C@H]3C[C@](C)(F)C3)n2)ccc1O[C@H]1CCC[C@H](C(=O)O)C1 [Example 192]	52 nM
Cc1nc(-c2nnn(C)c2CNc2noc(C(C)C3CC3)n2)ccc1O[C@H]1CCC[C@H](C(=O)O)C1 (some centres unmarked) [Example 193]	33 nM
Cc1nc(-c2nnn(C)c2CNc2noc(C(C)C3CC3)n2)ccc1O[C@H]1CCC[C@H](C(=O)O)C1 (some centres unmarked) [Example 194]	25 nM
Cc1nc(-c2nnn(C)c2CNc2noc(CC3CC3(F)F)n2)ccc1O[C@H]1CCC[C@H](C(=O)O)C1 (some centres unmarked) [Example 195]	25 nM
Cc1nc(-c2nnn(C)c2CNc2noc(CC3CC3(F)F)n2)ccc1O[C@H]1CCC[C@H](C(=O)O)C1 (some centres unmarked) [Example 196]	28 nM
CCCC(C)(C)c1nc(NCc2c(-c3ccc(O[C@H]4CCC[C@H](C(=O)O)C4)c(C)n3)nnn2C)no1 [Example 197]	42 nM
Cc1nc(-c2nnn(C)c2CNc2noc(C3CC(C)C3)n2)ccc1O[C@H]1CCC[C@H](C(=O)O)C1 (some centres unmarked) [Example 198]	28 nM
Cc1nc(-c2nnn(C)c2CNc2noc(C3CC(C)C3)n2)ccc1O[C@H]1CCC[C@H](C(=O)O)C1 (some centres unmarked) [Example 199]	33 nM

Second part, the compound after the results:

IC50	SMILES
31 nM	Cc1nc(-c2nnn(C)c2CNc2noc(CCC(C)F)n2)ccc1O[C@H]1CCC[C@H](C(=O)O)C1 (some centres unmarked) [Example 200]
32 nM	Cc1nc(-c2nnn(C)c2CNc2noc(CCC(C)F)n2)ccc1O[C@H]1CCC[C@H](C(=O)O)C1 (some centres unmarked) [Example 201]
8.4 nM	C=CCC(C)c1nc(NCc2c(-c3ccc(O[C@H]4CCC[C@H](C(=O)O)C4)c(C)n3)nnn2C)no1 (some centres unmarked) [Example 202]
11.5 nM	C=C1CC(c2nc(NCc3c(-c4ccc(O[C@H]5CCC[C@H](C(=O)O)C5)c(C)n4)nnn3C)no2)C1 [Example 203]
18.1 nM	Cc1nc(-c2nnn(C)c2CNc2noc(C3CC34CC4)n2)ccc1O[C@H]1CCC[C@H](C(=O)O)C1 (some centres unmarked) [Example 204]
24 nM	Cc1nc(-c2nnn(C)c2CNc2noc(C3CC34CC4)n2)ccc1O[C@H]1CCC[C@H](C(=O)O)C1 (some centres unmarked) [Example 205]
1090 nM	Cc1nc(-c2nnn(C)c2Cn2ncnc2C2CC2)ccc1O[C@H]1CCC[C@H](C(=O)O)C1 [Example 206]
213 nM	Cc1nc(-c2nnn(C)c2Cn2ncnc2-c2ccccc2)ccc1O[C@H]1CCC[C@H](C(=O)O)C1 [Example 207, (1S,3S)-3-((2-Methyl-6-(1-methyl-5-((5-phenyl-1H-1,2,4-triazol-1-yl)methyl)-1H-1,2,3-triazol-4-yl)pyridin-3-yl)oxy)cyclohexane-1-carboxylic acid]
370 nM	Cc1nc(-c2nnn(C)c2Cn2cnc(-c3ccccc3)n2)ccc1O[C@H]1CCC[C@H](C(=O)O)C1 [Example 208, (1S,3S)-3-((2-Methyl-6-(1-methyl-5-((3-phenyl-1H-1,2,4-triazol-1-yl)methyl)-1H-1,2,3-triazol-4-yl)pyridin-3-yl)oxy)cyclohexane-1-carboxylic acid]
2080 nM	Cc1nc(-c2nnn(C)c2Cn2cnnc2CC2CC2)ccc1O[C@H]1CCC[C@H](C(=O)O)C1 [Example 209]
191 nM	Cc1nc(-c2nnn(C)c2Cn2cnc(CC3CC3)n2)ccc1O[C@H]1CCC[C@H](C(=O)O)C1 [Example 210]
45 nM	Cc1nc(-c2nnn(C)c2CNc2ncn(-c3cc(F)cc(F)c3)n2)ccc1O[C@H]1CCC[C@H](C(=O)O)C1 [Example 211, (1 S,3 S)-3-((6-(5-(((1-(3,5-difluorophenyl)-1H-1,2,4-triazol-3-yl)amino)methyl)-1-methyl-1H-1,2,3-triazol-4-yl)-2-methylpyridin-3-yl)oxy)cyclohexane-1-carboxylic acid]
34 nM	Cc1nc(-c2nnn(C)c2CNc2noc(COC3CC3)n2)ccc1O[C@H]1CCC[C@H](C(=O)O)C1 [Example 212, (1 S,3 S)-3-((6-(5-(((5-(cyclopropoxymethyl)-1,2,4-oxadiazol-3-yl)amino)methyl)-1-methyl-1H-1,2,3-triazol-4-yl)-2-methylpyridin-3-yl)oxy)cyclohexane-1-carboxylic acid]
98 nM	CCOCCc1nc(NCc2c(-c3ccc(O[C@H]4CCC[C@H](C(=O)O)C4)c(C)n3)nnn2C)no1 [Example 213, (1S,3S)-3-((6-(5-(((5-(2-ethoxy-ethyl)-1,2,4-oxadiazol-3-yl)amino)methyl)-1-methyl-1H-1,2,3-triazol-4-yl)-2-methylpyridin-3-yl)oxy)cyclohexane-1-carboxylic acid]
246 nM	Cc1nc(-c2nnn(C)c2CNc2noc(CCOC(C)C)n2)ccc1O[C@H]1CCC[C@H](C(=O)O)C1 [Example 214, (1S,3S)-3-((6-(5-(((5-(2-isopro-poxyethyl)-1,2,4-oxadiazol-3-yl)amino)methyl)-1-methyl-1H-1,2,3-triazol-4-yl)-2-methylpyridin-3-yl)oxy)cyclohexane-1-carboxylic acid]
63 nM	CCCO[C@H](C)c1nc(NCc2c(-c3ccc(O[C@H]4CCC[C@H](C(=O)O)C4)c(C)n3)nnn2C)no1 [Example 219, (1S,3S)-3-((2-methyl-6-(1-methyl-5-(((5-((R)-1-propoxyethyl)-1,2,4-oxadiazol-3-yl)amino)methyl)-1H-1,2,3-triazol-4-yl)pyridin-3-yl)oxy)cyclohexane-1-carboxylic acid]
160 nM	CCCO[C@@H](C)c1nc(NCc2c(-c3ccc(O[C@H]4CCC[C@H](C(=O)O)C4)c(C)n3)nnn2C)no1 [Example 220]
2720 nM	CCc1nc(N(C)Cc2c(-c3ccc(O[C@H]4CCC[C@H](C(=O)O)C4)c(C)n3)nnn2C)no1 [Example 224, (1S,3S)-3-((6-(5-(((5-ethyl-1,2,4-oxadiazol-3-yl)(methyl)amino)methyl)-1-methyl-1H-1,2,3-triazol-4-yl)-2-methylpyridin-3-yl)oxy)cyclo-hexane-1-carboxylic acid]
1320 nM	CCOC1(c2nc(NCc3c(-c4ccc(O[C@H]5CCC[C@H](C(=O)O)C5)c(C)n4)nnn3C)no2)CC1 [Example 225, (1S,3S)-3-((6-(5-(((5-(1-ethoxy-cyclopropyl)-1,2,4-oxadiazol-3-yl)amino)methyl)-1-methyl-1H-1,2,3-triazol-4-yl)-2-methylpyridin-3-yl)oxy)cyclohexane-1-carboxylic acid]
2 nM	Cc1nc(-c2nnn(C)c2Cc2noc(CCC(C)(F)F)n2)ccc1O[C@H]1CCC[C@H](C(=O)O)C1 [Example 227, (1 S,3 S)-3-((6-(5-((5-(3,3-difluorobutyl)-1,2,4-oxadiazol-3-yl)methyl)-1-methyl-1H-1,2,3-triazol-4-yl)-2-methylpyridin-3-yl)oxy)cyclohexane-1-carboxylic acid]
19 nM	Cc1nc(-c2nnn(C)c2Cc2noc(CC3CC3)n2)ccc1O[C@H]1CCC[C@H](C(=O)O)C1 [Example 228, (1S,3S)-3-((6-(5-((5-(cyclopropylmethyl)-1,2,4-oxadiazol-3-yl)methyl)-1-methyl-1H-1,2,3-triazol-4-yl)-2-methylpyridin-3-yl)oxy)cyclohexane-1-carboxylic acid]
11 nM	Cc1nc(-c2nnn(C)c2Cc2noc(CCC(C)C)n2)ccc1O[C@H]1CCC[C@H](C(=O)O)C1 [Example 229, (1S,3S)-3-((6-(5-((5-isopentyl-1,2,4-oxadiazol-3-yl)methyl)-1-methyl-1H-1,2,3-triazol-4-yl)-2-methylpyridin-3-yl)oxy)cyclohexane-1-carboxylic acid]
95 nM	Cc1nc(-c2nnn(C)c2Cc2noc(C(C)C)n2)ccc1O[C@H]1CCC[C@H](C(=O)O)C1 [Example 230, (1S,3S)-3-((6-(5-((5-isopropyl-1,2,4-oxadiazol-3-yl)methyl)-1-methyl-1H-1,2,3-triazol-4-yl)-2-methylpyridin-3-yl)oxy)cyclohexane-1-carboxylic acid]
15 nM	Cc1nc(-c2nnn(C)c2Cc2noc(CCC3CC3)n2)ccc1O[C@H]1CCC[C@H](C(=O)O)C1 [Example 231, (1S,3S)-3-((6-(5-((5-(2-cyclopropylethyl)-1,2,4-oxadiazol-3-yl)methyl)-1-methyl-1H-1,2,3-triazol-4-yl)-2-methylpyridin-3-yl)oxy)cyclohexane-1-carboxylic acid]
